Patent US7169756B2, “Streptogramin antibiotics” (priority 2005, dated 2007)
≈ marks a conversion by molar mass, not a printed value. Like-named read-outs stand apart in the source and are kept apart here. Numbered stars: 1 amine (or outer) side, 2 acyl side, 3 side chain; on linkers, the order of the positions; unused ones are H or OH. Bridge positions count the residues as written; N and C are the ends. Square brackets hold non-standard residues; d marks the D form. Peptide text beside a SMILES is read from it. * marks the point of attachment. X1 = O=C1C[C@@H](C(=O)[*:2])N([*:1])C[C@H]1CS[C@@H]1CN2CCC1CC2; NMePhe(4-NMe2) = CN[C@@H](Cc1ccc(N(C)C)cc1)C(=O)O; Picolinoyl(3-OH) = O=C(c1ncccc1O)*; Phg = N[C@H](C(=O)O)c1ccccc1; Orn = NCCC[C@H](N)C(=O)O; dAbu = CC[C@@H](N)C(=O)O; Dap = NC[C@H](N)C(=O)O

Columns and labels:
[1] = test system: Staphylococcus aureus RN4220/pJIM2246; experiment: microbe, parasite or virus in culture; assay type: cell-based
Method: (§1) The antibiotic activity of the peptides synthesized in this study was initially assayed using a disk assay where samples were applied to sterile paper disks placed on a fresh lawn of bacterial culture on appropriate agar plates as required by the organism. These were then incubated for 16 hr at 37° C. and the zone of growth inhibition surrounding the disks recorded. For quantitative assessment of antibiotic activity in liquid culture, the minimal inhibitory concentration (MIC) of peptides was determined by serial dilution studies. The peptides and standard antibiotics were dissolved in DMSO and the final concentration of DMSO in the liquid cultures was 5%. Both S. aureus RN4220 and E. coli BAS901 were able to grow efficiently at this level of DMSO.

[2] = test system: Staphylococcus aureus RN4220/pJIM2246Ωvgb; experiment: microbe, parasite or virus in culture; assay type: cell-based
Method: as §1

[3] = test system: Staphylococcus epidermidis (ATCC 14990); experiment: microbe, parasite or virus in culture; assay type: cell-based
Method: as §1

[4] = test system: Streptococcus pneumoniae (ATCC 49619); experiment: microbe, parasite or virus in culture; assay type: cell-based
Method: as §1

[5] = test system: Streptococcus pneumoniae (ATCC 6305); experiment: microbe, parasite or virus in culture; assay type: cell-based
Method: as §1

in vitro translation = experiment: In Vitro Translation Assay; assay type: biochemical; settings: FIG. 6
Method: Inhibition of translation was monitored using an ActivePro In Vitro Translation Kit from Ambion. Briefly, a reaction mixture was prepared as per the manufacturer's instructions that contained all of the constituents necessary (including [^35S]-methionine) except for DNA template. These mixtures were then preincubated for 15 min at room temperature in the presence or absence of various antibiotics. Subsequent to the preincubation period, a control template containing a chloramphenicol acetyltransferase gene under control of a bacteriophage T7 promoter was added and the reaction carried out for 1 hr at 37° C. Due to the insoluble nature of some of the antibiotics, the final DMSO concentration in each reaction including controls was maintained at 5% (v/v). Aliquots were taken after 1 hr, and separated on SDS polyacrylamide gels. The efficiency of translation of ^35S-labeled […] was analyzed and quantified using a Typhoon 9200 variable mode imager (Image-Quant 5.2 software).

E. coli BAS901/pUCVgb [6] = experiment: disk assay, zone of growth inhibition; assay type: cell-based, Escherichia coli; settings: Vgb constitutively expressed
From the text: (§2) A hyperpermeable E. coli strain, E. coli BAS901, harboring a plasmid constitutively expressing Vgb was created for in vivo studies. The plasmids pVGB, described previously in [14], and […] were digested with Xbal and BamHI, to yield an approximately 1 kb fragment containing a ribosomal binding site upstream of vgb, and linearized pUC19 backbone, respectively. The vgb fragment was then subcloned into the linearized pUC19 backbone downstream of pLac yielding pUC19-VGB. Both pUC19-VGB and pUC19 were transformed E. coli BAS901.
as §1
(§3) Crude material from the initial synthesis reactions was used to test the potential of the analogues as antibiotics in susceptibility assays where a solution of the compound was placed on a paper disk on a lawn of bacteria. As described above, E. coli BAS901 is deficient in the Imp/OstA protein, an outer membrane protein, involved in cell envelope biogenesis (1, 5). […] The antibiotic activity of the peptides synthesized in this study was initially assayed using a disk assay where samples were applied to sterile paper disks placed on a fresh lawn of bacterial culture on Tryptic Soya, Luria Broth, or Brain Heart Infusion Agar plates. These were then incubated for 16 hrs at 37° C. and the zone of growth inhibition surrounding the disks recorded.

B. subtilis 168 = assay type: cell-based, Bacillus subtilis
Method: as §1
(§4) Crude material from the initial synthesis reactions was used to test the potential of the analogues as antibiotics in susceptibility assays where a solution of the compound was placed on a paper disk on a lawn of bacteria. As described above, E. coli BAS901 is deficient in the Imp/OstA protein, an outer membrane protein, involved in cell envelope biogenesis (1, 5). […] These were then incubated for 16 hrs at 37° C. and the zone of growth inhibition surrounding the disks recorded.

E. coli BAS901/pUC19 = experiment: microbe, parasite or virus in culture; assay type: cell-based, Escherichia coli
From the text: as §2, §1

E. coli BAS901/pUCVgb [7] = experiment: microbe, parasite or virus in culture; assay type: cell-based, Escherichia coli
From the text: as §2, §1

[8] = test system: Staphylococcus aureus (ATCC 43300); experiment: disk assay, zone of growth inhibition; assay type: cell-based; settings: methicillin resistant, oxacillin resistant
Method: as §1, §3

[9] = test system: Staphylococcus aureus (ATCC 29213); experiment: disk assay, zone of growth inhibition; assay type: cell-based
Method: as §1, §3

[10] = test system: Salmonella enterica (ATCC 14028); experiment: disk assay, zone of growth inhibition; assay type: cell-based; settings: serovar Typhimurium
Method: as §1, §3

[11] = test system: Streptococcus pneumoniae (ATCC 49619); experiment: disk assay, zone of growth inhibition; assay type: cell-based
Method: as §1, §3

[12] = test system: Enterococcus faecalis (ATCC 51299); experiment: disk assay, zone of growth inhibition; assay type: cell-based; settings: vancomycin, aminoglycoside resistant
Method: as §1, §3

[13] = test system: Staphylococcus aureus (ATCC 25923); experiment: disk assay, zone of growth inhibition; assay type: cell-based
Method: as §1, §3

[14] = test system: Staphylococcus aureus (ATCC 49476); experiment: disk assay, zone of growth inhibition; assay type: cell-based
Method: as §1, §3

E. coli (ATCC 25922) = experiment: disk assay, zone of growth inhibition; assay type: cell-based, Escherichia coli; settings: wild-type
Method: as §1, §4

E. coli ribosomes = settings: fluorescence titration, purified intact E. coli ribosomes
[15] = test system: Staphylococcus epidermidis (ATCC 12228); assay type: cell-based
Method: as §1, §3

[16] = test system: Staphylococcus epidermidis (ATCC 14990); assay type: cell-based
Method: as §1, §3

[17] = test system: Streptococcus pneumoniae (ATCC 6305); assay type: cell-based
Method: as §1, §3

[18] = test system: Enterococcus faecalis (ATCC 29212); assay type: cell-based
Method: as §1, §3

Haemophilus influenza = experiment: disk assay, zone of growth inhibition; assay type: cell-based, Haemophilus influenzae
Method: as §1, §4

[19] = E. coli BAS901/pUCVgb (expressing Vgb)

Row | Structure (SMILES) | MIC [1] [µg/mL] | Zone of Inhibition (E. coli BAS901/pUCVgb [6]) | MIC (E. coli BAS901/pUCVgb [7]; [19]) | Zone of Inhibition [8] | Zone of Inhibition [9] | Zone of Inhibition [10] | Zone of Inhibition [11] | Zone of Inhibition [12] | Zone of Inhibition [13] | Zone of Inhibition [14] | Zone of Inhibition (E. coli (ATCC 25922)) | ribosome binding (increase of Hpa fluorescence) (E. coli ribosomes) | Zone of Inhibition (Haemophilus influenza) | further results
1 | CC(C)C[C@@H]1NC(=O)[C@H](CCCN)NC(=O)[C@H]([C@@H](C)O)NC(=O)[C@@H](NC(=O)c2ncccc2O)CNC(=O)[C@H](Cc2ccccc2)NC(=O)[C@@H]2CCCN2C(=O)[C@@H](Cc2ccccc2)NC1=O [Compound 5] ({Picolinoyl(3-OH)}-[Dap]T[Orn]L[dF]PF; lactam 1-C) | 256 (≈ 276 µM) | still exhibit zones of inhibition | 32 µg/mL (≈ 34.5 µM) | n.i. | n.i. | n.i. | n.i. | n.i. | n.i. | n.i. | n.i. | did not appear to interact with the ribosome | n.i. | MIC ([2]; Staphylococcus aureus RN4220/pJIM2246Ωvgb): 256 µg/mL (≈ 276 µM); MIC ([3]; ATCC 14990, 16 h): 64 µg/mL (≈ 69 µM); MIC ([4]; ATCC 49619, 16 h): 128 µg/mL (≈ 138 µM); MIC ([5]; ATCC 6305, 16 h): 32 µg/mL (≈ 34.5 µM); inhibition of in vitro translation (in vitro translation; at 250 μg/ml): did not; Zone of Inhibition (B. subtilis 168; 168, 16 h): 0.8 cm; MIC (E. coli BAS901/pUC19; E. coli BAS901/pUC19 (control), 5% DMSO): 32 µg/mL (≈ 34.5 µM); Zone of Inhibition ([15]; ATCC 12228, 16 h): 0.85 cm; Zone of Inhibition ([16]; ATCC 14990, 16 h): 0.75 cm; Zone of Inhibition ([17]; ATCC 6305, 16 h): 0.8 cm; Zone of Inhibition ([18]; ATCC 29212, 16 h): 0.75 cm
2 | CC[C@H]1NC(=O)[C@@H](NC(=O)c2ncccc2O)[C@@H](C)OC(=O)[C@H](c2ccccc2)NC(=O)[C@@H]2CC(=O)[C@H](CS[C@@H]3CN4CCC3CC4)CN2C(=O)[C@H](Cc2ccc(N(C)C)cc2)N(C)C(=O)[C@@H]2CCCN2C1=O [Quinupristin, quinupristin, reference compound] ({Picolinoyl(3-OH)}-T[dAbu]P[NMePhe(4-NMe2)][X1][Phg]; ester 1-C) | 2 (≈ 1.96 µM) | n.i.^a | increased significantly | n.i. | 2.3 cm | n.i. | 2.0 cm | n.i. | 2.2 cm | 2.6 cm | n.i. | did support ribosome binding | n.i. | MIC ([2]; Staphylococcus aureus): 8 µg/mL (≈ 7.83 µM); MIC ([3]; ATCC14990, Staphylococcus epidermidis (ATCC 14990), read-out: MIC): 1 µg/mL (≈ 0.978 µM); MIC ([4]; ATCC49619, Streptococcus pneumoniae (ATCC 49619), read-out: MIC): 0.5 µg/mL (≈ 0.489 µM); MIC ([5]; ATCC6305, Streptococcus pneumoniae (ATCC 6305), read-out: MIC): 1 µg/mL (≈ 0.978 µM); inhibition of in vitro translation (in vitro translation; 15 min preincubation, 1 hr at 37° C., 5% DMSO, concentration not given): did block; Zone of Inhibition (E. coli BAS901/pUCVgb [6]; listed as quinupristin): inactivated; Zone of Inhibition (B. subtilis 168; B. subtilis 168, disk assay): 2.2 cm; MIC (E. coli BAS901/pUC19; Escherichia coli, BAS901/PUC19): 4 µg/mL (≈ 3.91 µM); MIC (E. coli BAS901/pUCVgb [7]; Escherichia coli, BAS901/PUCVGB): > 256 µg/mL; Zone of Inhibition ([15]; Staphylococcus epidermidis (ATCC 12228), disk assay): 3.4 cm; Zone of Inhibition ([16]; Staphylococcus epidermidis (ATCC 14990), disk assay): 3.0 cm; Zone of Inhibition ([17]; Streptococcus pneumoniae (ATCC 6305), disk assay): 2.1 cm; Zone of Inhibition ([18]; Enterococcus faecalis (ATCC 29212), disk assay): 1.8 cm
